Source: PMC11822212, “High-throughput screening identifies Aurora kinase B as a critical therapeutic target for Merkel cell carcinoma” (Nature Communications, 2025)

Tested on: GDSC cancer cell lines
Assay: Genomics of Drug Sensitivity in Cancer (GDSC) IC50 comparison across cancer cell lines
Type: cell-based, human
Conditions: own IC50 estimates compared with public IC50 data
Method: Palo Alto, CA, USA) for these compounds from our small molecule screen. Following the graphing format in the GDSC database, compounds were ranked by IC50 and plotted in Rstudio using ggplot2, ggrepel, and scales packages. page 9: Supplementary Fig. S6. Au rora kinase inhibi tors mor e potentl y reduc e viability in VP-MCC than VN-MCC. […] Cell viability was measured by CellTiter- Glo at 72 h and by manual cell counts at 144 h. […] Consistent across n = 3 replicates . B) IC50 values (molar) for each aurora kinase inhibitor in each MCC cell line. […] IC50 values from GDSC (Gray-scale and green) were combined with IC50 values determined in our study (purple) and then ranked. n = number of experimental replicates for each cell line.

Cc1cc(Nc2cc(N3CCN(C)CC3)nc(Sc3ccc(NC(=O)C4CC4)cc3)n2)[nH]n1 [Tozasertib, reference compound]
potency in VP-MCC cell lines versus other human cancer cell lines (GDSC): higher in VP-MCC cell lines than in hundreds of other human cancer cell lines
